Source: ChEMBL document CHEMBL1201862, “PubChem BioAssay data set” (2004)
The source made the active and inactive calls.

Legend:
[1] = viability of uninfected HEp-2 cells – cell-based, HTS, cytotoxicity control for RSV inhibitor project, dose response (AID 2410); assay type: functional; details: human respiratory syncytial virus
HEK293 = assay: Fluorescence-based counterscreen for potentiators or agonists of NPY-Y2: cell-based high-throughput dose response assay to identify inhibitors of cyclic nucleotide gated ion channel (CNGC) activity. In this assay, the parental HEK293 cell line transfected with a cyclic-nucleotide gated ion channel (CNGC)-based cAMP sensor is used to measure inhibition of isoproterenol-induced CNGC activity by test compound.; assay type: functional; details: Homo sapiens;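 further: stimulus is 1 µM isoproterenol at EC100 plus PDE inhibitor Ro 20-1724 at 25 µM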
[2] = Luminescence Cell-Based Dose Confirmation HTS to Identify Activators of 5'UTR Stem-Loop Driven Alpha-Synuclein mRNA Translation in H4 Neuroglioblastoma Cells. [Related pubchem assays: 1829 (Project Summary), 1814 (Primary HTS)]; assay type: functional
[3] = Luminescence Cell-Based Dose Response HTS to Identify Activators of Luciferase Translation or Activity in H4 […] Cells. [Related pubchem assays: 1829 (Project Summary), 1814 (Primary HTS)]; assay type: functional
[4] = target: T1, Neuropeptide Y receptor type 2 (Homo sapiens, UniProt P49146); assay: Fluorescence-based cell-based high-throughput dose response assay for agonists of NPY-Y2. [Related pubchem assays: 1703 (Screening assay (CNGC inhibitors).), 1359 (Screening assay (NPY-Y2 potentiators or agonists).), 1304 (Screening assay (NPY-Y1 potentiators or agonists).), 1710 (Screening assay (NPY-Y2 agonists).), 1791 (Summary AID.)]; assay type: functional
T1 sequence (P49146 whole entry): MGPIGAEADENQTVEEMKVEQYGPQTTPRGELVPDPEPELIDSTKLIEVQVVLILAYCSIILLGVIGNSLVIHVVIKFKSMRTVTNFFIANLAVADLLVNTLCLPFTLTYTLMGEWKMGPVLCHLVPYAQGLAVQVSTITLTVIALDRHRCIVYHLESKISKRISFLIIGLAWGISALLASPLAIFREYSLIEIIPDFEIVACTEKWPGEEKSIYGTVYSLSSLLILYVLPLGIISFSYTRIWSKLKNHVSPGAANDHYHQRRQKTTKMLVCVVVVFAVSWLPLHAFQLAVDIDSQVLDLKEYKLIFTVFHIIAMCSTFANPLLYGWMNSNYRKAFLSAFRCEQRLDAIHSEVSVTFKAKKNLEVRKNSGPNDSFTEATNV

H4 = assay: Luminescence Cell-Based Dose Response HTS to Identify Activators of 5'UTR Stem-Loop Driven Prion Protein mRNA Translation in H4 Neuroglioblastoma Cells. [Related pubchem assays: 1829 (Project Summary), 1814 (Primary HTS)]; assay type: functional; details: Homo sapiens
[5] = microbe, parasite or virus in culture; assay type: functional; details: Mycobacterium tuberculosis
[6] = target: T2, Neuropeptide Y receptor type 1 (Homo sapiens, UniProt P25929); assay: Fluorescence-based counterscreen for agonists of NPY-Y2: cell-based high-throughput dose response assay for agonists of NPY-Y1.; assay type: functional
T2 sequence (P25929 whole entry): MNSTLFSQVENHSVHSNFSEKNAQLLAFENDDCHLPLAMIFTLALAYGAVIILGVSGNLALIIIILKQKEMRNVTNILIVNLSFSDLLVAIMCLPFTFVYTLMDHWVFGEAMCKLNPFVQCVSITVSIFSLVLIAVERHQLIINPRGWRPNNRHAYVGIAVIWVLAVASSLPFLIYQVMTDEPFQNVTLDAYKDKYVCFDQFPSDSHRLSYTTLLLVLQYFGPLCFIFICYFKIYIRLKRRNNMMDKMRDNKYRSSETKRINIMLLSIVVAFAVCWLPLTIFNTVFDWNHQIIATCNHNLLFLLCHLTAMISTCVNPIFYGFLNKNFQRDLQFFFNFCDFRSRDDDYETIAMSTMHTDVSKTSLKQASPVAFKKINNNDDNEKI

[7] = target: T3, Eukaryotic translation initiation factor 2-alpha kinase 3 (Homo sapiens, UniProt Q9NZJ5); assay: Dose response cell-based high-throughput screening assay to measure PERK inhibition. [Related pubchem assays: 1416 ]; assay type: functional
T3 sequence (Q9NZJ5 whole entry): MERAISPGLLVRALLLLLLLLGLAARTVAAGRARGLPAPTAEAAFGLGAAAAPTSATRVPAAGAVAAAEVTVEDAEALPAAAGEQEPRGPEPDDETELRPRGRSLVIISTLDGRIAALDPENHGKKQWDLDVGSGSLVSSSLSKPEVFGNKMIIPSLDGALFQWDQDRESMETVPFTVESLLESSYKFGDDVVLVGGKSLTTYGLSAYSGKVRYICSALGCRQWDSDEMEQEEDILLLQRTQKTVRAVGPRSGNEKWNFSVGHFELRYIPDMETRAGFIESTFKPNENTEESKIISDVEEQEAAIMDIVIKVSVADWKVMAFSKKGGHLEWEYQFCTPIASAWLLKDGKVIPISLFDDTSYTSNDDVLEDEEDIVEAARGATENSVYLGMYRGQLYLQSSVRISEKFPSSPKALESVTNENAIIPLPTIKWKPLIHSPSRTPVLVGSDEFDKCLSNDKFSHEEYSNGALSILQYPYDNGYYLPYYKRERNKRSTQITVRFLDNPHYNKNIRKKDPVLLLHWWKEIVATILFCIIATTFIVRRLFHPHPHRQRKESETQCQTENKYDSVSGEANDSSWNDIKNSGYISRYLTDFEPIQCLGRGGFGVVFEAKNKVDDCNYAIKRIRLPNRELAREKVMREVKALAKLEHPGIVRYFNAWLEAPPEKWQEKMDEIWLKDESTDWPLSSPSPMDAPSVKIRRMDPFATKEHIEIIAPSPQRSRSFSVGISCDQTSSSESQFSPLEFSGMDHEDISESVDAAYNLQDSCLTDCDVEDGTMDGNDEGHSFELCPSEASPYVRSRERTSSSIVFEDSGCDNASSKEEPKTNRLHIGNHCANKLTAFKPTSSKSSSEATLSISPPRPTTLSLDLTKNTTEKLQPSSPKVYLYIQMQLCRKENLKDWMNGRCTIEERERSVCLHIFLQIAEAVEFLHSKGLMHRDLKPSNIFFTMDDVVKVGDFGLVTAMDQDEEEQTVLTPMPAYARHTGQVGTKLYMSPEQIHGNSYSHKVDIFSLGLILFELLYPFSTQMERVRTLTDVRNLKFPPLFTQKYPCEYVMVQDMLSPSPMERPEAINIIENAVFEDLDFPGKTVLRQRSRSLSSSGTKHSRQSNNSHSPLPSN

[8] = target: T3, Eukaryotic translation initiation factor 2-alpha kinase 3; assay: Counterscreen assay for PERK inhibitors: Dose response cell-based high throughput screening assay to measure inhibition of PERK at 6 hours. [Related pubchem assays: 1522, 1416 ]; assay type: functional
[9] = target: Eukaryotic translation initiation factor 4H (Homo sapiens, UniProt Q15056); assay: eIF4H binding inhibition – biochemical, uHTS, fluorescence polarization, translation initiation inhibitor project, primary screen (AID 2012)
[10] = target: T4, Calpain-2 catalytic subunit (Sus scrofa, UniProt P43367); assay: m-calpain protease blockers, concentration series – biochemical, fluorogenic peptide substrate, dose response (AID 1420); assay type: functional
T4 sequence (P43367 whole entry): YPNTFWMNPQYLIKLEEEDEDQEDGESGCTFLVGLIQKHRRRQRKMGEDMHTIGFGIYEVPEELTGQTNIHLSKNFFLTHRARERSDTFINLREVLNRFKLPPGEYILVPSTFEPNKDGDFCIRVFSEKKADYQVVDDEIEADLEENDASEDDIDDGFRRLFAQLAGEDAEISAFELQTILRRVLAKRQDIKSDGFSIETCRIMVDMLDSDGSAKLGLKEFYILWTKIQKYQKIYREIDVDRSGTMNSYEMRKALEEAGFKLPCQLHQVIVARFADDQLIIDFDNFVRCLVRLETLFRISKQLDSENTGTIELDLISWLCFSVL

[11] = target: Polyadenylate-binding protein 1 (Homo sapiens, UniProt P11940); assay: blockers of PABP interaction with poly(A) – biochemical, fluorescence polarization, […] (AID 2014)
[12] = target: DNA dC->dU-editing enzyme APOBEC-3A (Homo sapiens, UniProt P31941); assay: Dose Response confirmation of small molecule APOBEC3A DNA Deaminase Inhibitors via a fluorescence-based single-stranded DNA deaminase assay. [Related pubchem assays (depositor defined):AID493011, AID493024]; assay type: functional
[13] = target: DNA dC->dU-editing enzyme APOBEC-3G (Homo sapiens, UniProt Q9HC16); assay type: functional;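 further: Dose-response counterscreen measuring inhibition of APOBEC3G DNA deaminase activity, run while confirming APOBEC3A inhibitors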
[14] = target: T5, Alkaline phosphatase, tissue-nonspecific isozyme (Homo sapiens, UniProt P05186)
T5 sequence (P05186 whole entry): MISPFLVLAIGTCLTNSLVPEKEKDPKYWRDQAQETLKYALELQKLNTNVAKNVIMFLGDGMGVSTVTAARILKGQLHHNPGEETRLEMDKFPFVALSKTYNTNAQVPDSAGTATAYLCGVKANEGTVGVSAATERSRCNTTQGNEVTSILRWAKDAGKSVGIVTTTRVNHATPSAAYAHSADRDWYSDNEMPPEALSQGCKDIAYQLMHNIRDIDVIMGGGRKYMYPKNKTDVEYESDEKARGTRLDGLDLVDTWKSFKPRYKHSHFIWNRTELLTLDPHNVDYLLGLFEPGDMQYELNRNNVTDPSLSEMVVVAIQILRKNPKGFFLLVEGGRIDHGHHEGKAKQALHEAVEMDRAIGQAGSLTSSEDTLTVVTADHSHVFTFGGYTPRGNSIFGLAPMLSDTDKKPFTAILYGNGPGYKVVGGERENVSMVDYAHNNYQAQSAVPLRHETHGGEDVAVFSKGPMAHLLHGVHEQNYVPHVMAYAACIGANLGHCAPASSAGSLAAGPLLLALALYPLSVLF

[15] = viability loss in THP-1 monocytes – THP-1 cells, cytotoxicity control for Vif-APOBEC3G degradation inhibitor project, dose response (AID 1117359); assay type: functional; details: THP-1
[16] = target: Lysosomal acid glucosylceramidase (Homo sapiens, UniProt P04062); assay: Dose response cell-based high throughput screening assay to identify enhancers of beta-glucosidase activity. [Related pubchem assays: 784 ]; assay type: functional
[17] = target: T6, Neuropeptides B/W receptor type 1 (Homo sapiens, UniProt P48145); assay: Fluorescence-based dose response cell-based high throughput screening assay to identify antagonists of the G-protein coupled receptor 7 (GPR7). [Related pubchem assays: 1952 (Screening assay (GPR7 antagonists).), 1880 (Summary AID.)]; assay type: functional
T6 sequence (P48145 whole entry): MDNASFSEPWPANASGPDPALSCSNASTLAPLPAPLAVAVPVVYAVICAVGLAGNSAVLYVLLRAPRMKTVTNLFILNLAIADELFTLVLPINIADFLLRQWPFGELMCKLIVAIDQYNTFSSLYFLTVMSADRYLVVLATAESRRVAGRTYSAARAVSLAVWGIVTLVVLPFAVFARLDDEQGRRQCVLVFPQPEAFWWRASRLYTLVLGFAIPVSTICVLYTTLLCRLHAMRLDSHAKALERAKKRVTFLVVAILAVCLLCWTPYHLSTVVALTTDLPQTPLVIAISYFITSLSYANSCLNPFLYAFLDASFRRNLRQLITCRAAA

[18] = target: Melanin-concentrating hormone receptor 1 (Homo sapiens, UniProt Q99705); assay: Fluorescence-based counterscreen for antagonists of the G-protein coupled receptor 7 (GPR7): cell-based high throughput dose response assay to identify antagonists of the melanin-concentrating hormone receptor 1 (MCHR1).; assay type: functional
[19] = target: Luciferin 4-monooxygenase (Photinus pyralis, UniProt P08659); assay: inhibition of purified Photinus pyralis luciferase – biochemical, luminescence, dose response (AID 1891)
[20] = Luminescence Cell-Based Dose Confirmation HTS to Identify Inhibitors of Platelet Dense Granule Release. [Related pubchem assays: 1663 (Primary HTS), 1678 (Summary of Project)]; assay type: functional
Paired box protein Pax-8 = Paired box protein Pax-8 (Homo sapiens, UniProt Q06710); assay: PAX8 transcriptional activity inhibition in RMG-I – RMG-I cells, luciferase, cherry-pick, dose response (AID 687027); assay type: functional, cell-based;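 further: luciferase reporter driven by Pax8 target thyroperoxidase promoter measured by SteadyGlo luminescence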
Chain of Paired box protein Pax-8 (Q06710 whole entry): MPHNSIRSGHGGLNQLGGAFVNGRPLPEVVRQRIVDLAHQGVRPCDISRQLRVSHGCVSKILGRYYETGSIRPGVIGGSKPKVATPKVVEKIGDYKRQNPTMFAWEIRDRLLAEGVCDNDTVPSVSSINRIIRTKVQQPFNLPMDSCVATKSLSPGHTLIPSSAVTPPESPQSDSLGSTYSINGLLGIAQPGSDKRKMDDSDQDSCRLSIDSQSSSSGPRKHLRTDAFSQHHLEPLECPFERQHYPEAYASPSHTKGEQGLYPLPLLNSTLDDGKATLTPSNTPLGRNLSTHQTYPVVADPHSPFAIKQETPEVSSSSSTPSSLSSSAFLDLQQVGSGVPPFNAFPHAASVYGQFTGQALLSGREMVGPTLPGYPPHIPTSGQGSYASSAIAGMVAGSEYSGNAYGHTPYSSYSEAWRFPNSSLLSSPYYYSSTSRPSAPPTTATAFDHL

Chain of Polyadenylate-binding protein 1 (P11940 whole entry): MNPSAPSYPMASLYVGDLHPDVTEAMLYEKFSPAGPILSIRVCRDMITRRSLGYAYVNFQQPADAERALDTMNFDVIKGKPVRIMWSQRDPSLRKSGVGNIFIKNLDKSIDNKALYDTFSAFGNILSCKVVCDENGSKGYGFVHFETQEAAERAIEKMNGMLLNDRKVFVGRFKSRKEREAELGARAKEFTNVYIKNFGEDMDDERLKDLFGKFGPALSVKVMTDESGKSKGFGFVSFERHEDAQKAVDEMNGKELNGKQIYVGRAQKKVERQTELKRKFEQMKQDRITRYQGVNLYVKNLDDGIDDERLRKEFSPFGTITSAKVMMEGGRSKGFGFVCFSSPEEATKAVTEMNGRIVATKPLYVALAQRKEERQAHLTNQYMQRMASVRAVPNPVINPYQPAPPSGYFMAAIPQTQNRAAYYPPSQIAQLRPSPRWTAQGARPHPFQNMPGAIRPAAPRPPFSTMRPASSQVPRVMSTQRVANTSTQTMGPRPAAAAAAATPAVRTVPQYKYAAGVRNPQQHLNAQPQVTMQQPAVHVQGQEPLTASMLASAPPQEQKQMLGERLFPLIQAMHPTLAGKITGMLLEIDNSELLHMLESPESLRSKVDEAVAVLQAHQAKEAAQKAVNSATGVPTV
Chain of Lysosomal acid glucosylceramidase (P04062 whole entry): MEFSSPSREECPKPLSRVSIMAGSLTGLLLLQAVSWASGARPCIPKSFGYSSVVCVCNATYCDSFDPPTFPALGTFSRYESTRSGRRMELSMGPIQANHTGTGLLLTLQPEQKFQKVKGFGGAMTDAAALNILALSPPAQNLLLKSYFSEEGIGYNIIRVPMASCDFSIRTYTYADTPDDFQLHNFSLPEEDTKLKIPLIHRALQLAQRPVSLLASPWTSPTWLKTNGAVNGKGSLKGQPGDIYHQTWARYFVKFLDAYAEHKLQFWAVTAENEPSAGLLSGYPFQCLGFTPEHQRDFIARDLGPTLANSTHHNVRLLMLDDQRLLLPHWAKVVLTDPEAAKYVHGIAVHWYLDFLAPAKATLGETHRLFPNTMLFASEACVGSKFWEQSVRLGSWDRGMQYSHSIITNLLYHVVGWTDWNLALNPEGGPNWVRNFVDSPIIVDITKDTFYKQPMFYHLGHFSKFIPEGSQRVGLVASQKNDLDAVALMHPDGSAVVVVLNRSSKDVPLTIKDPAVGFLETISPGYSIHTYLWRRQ
Chain of Melanin-concentrating hormone receptor 1 (Q99705 whole entry): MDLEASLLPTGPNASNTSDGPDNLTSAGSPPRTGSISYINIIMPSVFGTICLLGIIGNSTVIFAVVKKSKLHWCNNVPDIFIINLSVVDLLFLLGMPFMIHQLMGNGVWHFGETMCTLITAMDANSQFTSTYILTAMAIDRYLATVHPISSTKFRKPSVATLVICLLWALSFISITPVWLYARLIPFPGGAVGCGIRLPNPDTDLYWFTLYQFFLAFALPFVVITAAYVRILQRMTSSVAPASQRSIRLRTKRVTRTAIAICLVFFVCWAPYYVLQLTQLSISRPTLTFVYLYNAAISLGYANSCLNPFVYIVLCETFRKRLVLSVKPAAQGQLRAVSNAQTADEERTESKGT
Chain of Luciferin 4-monooxygenase (P08659 whole entry): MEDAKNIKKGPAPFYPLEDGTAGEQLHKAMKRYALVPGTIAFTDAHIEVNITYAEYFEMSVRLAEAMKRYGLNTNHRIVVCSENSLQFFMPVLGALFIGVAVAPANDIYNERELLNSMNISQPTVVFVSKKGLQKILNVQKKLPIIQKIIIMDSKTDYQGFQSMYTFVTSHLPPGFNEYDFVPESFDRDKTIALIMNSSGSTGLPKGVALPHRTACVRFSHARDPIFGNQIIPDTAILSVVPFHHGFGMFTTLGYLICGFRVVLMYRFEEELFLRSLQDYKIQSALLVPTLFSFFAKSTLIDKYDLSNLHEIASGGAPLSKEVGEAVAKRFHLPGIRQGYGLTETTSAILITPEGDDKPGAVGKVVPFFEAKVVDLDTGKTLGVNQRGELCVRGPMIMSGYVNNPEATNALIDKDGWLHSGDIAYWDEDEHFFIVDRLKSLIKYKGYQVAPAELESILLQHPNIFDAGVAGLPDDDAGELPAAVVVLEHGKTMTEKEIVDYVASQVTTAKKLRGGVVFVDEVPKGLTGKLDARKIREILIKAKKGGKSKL
Chain of DNA dC->dU-editing enzyme APOBEC-3G (Q9HC16 whole entry): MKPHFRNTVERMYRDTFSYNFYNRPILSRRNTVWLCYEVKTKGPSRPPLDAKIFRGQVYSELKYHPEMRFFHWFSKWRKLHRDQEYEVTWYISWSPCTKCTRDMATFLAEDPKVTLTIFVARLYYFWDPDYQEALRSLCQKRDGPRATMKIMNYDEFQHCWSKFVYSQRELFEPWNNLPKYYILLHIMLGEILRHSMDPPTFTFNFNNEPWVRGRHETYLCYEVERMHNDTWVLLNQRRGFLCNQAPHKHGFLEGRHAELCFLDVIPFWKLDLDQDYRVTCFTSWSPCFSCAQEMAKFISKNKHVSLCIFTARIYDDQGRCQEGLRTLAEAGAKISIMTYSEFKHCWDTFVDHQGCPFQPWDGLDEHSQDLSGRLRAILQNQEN
Chain of DNA dC->dU-editing enzyme APOBEC-3A (P31941 whole entry): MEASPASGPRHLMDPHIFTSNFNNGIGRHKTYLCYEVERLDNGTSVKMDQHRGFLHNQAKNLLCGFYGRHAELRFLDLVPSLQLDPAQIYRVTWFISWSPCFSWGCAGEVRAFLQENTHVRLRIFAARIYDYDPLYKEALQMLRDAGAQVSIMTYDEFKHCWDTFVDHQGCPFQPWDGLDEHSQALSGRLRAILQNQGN

Structure (SMILES): CCn1c2ccccc2c2cc(NC(=O)CN(C)CC(=O)Nc3ccc(N4CCOCC4)cc3)ccc21
- CC50 [1]: 32.7 µM (active)
- EC50 (HEK293): > 35.4 µM (not active)
- EC50 [2]: > 120 µM (not active)
- EC50 [3]: > 120 µM (not active)
- EC50 [4]: > 35.4 µM (not active)
- EC50 (H4): > 120 µM (not active)
- CC50 [5]: 37.5 µM (active)
- EC50 [6]: > 35.4 µM (not active)

Structure (SMILES): COc1ccc2c(c1)c(=O)oc1cc(O)ccc12
- EC50 [7]: > 55.7 µM (not active)
- EC50 [8]: > 55.7 µM (not active)

Structure (SMILES): COc1ccc(CCCc2nnc(SCC(=O)Nc3ccc(C)c(C)c3)o2)cc1
- IC50 [9]: > 100 µM (inactive)
- IC50 [10]: < 0.4 µM (not active)
- IC50 [11]: 6.61 µM (active)
- IC50 [12]: 2.18 µM (active)
- IC50 [13]: 3.68 µM (active)

Structure (SMILES): O=C(CCC(=O)NNc1nc2ccccc2c2nc(-c3ccccc3)nn12)NCCCN1CCOCC1
- EC50 [14]: 70.8 µM (not active)
- CC50 [15]: > 40 µM (active)

Structure (SMILES): O=C(O)Cn1cnc2c(S)ncnc21
- EC50 [7]: > 55.7 µM (not active)
- EC50 [8]: > 55.7 µM (not active)

Structure (SMILES): CCOC(=O)CN1C(=O)CSc2ccccc21
- EC50 [16]: > 10 µM (not active)

Structure (SMILES): COc1ccc(-c2nc3ccccn3c2CN2CCN(c3ccccc3F)CC2)cc1
- EC50 [14]: 69.1 µM (not active)
- CC50 [5]: > 40 µM (active)

Structure (SMILES): CC(C)(CO)NCc1c(OCc2ccc(Cl)cc2)ccc2ccccc12
- IC50 [17]: 7.85 µM (active)
- IC50 [18]: 9.31 µM (active)

Structure (SMILES): Cn1c(Cc2ccccc2)nnc1SCC(=O)Nc1ccccc1N1CCOCC1
- EC50 [16]: > 50 µM (not active)

Structure (SMILES): O=C(N/N=C/c1ccc(Cl)c([N+](=O)[O-])c1)c1cc(-c2ccc3c4c(cccc24)CC3)[nH]n1
- EC50 (HEK293): > 35.4 µM (not active)
- EC50 [4]: > 35.4 µM (not active)
- EC50 [19]: > 112 µM (not active)
- EC50 [20]: > 112 µM (not active)
- EC50 [6]: > 35.4 µM (not active)
- AC50 (Paired box protein Pax-8): 3.25 µM (active)

Structure (SMILES): COc1cc(/C=N\NC(=O)c2ccc(Cl)cc2)ccc1Oc1ccc([N+](=O)[O-])cn1
- IC50 [9]: > 100 µM (inactive)
- IC50 [11]: 9.22 µM (active)
